# Assay results published in publication PMC7712488 (Vaccines, 2020).
# Tested on: DQ0602
# Test: DQ0602 peptide competition binding assay (vs Bio-EBV epitope, DELFIA TRF)
# Conditions: Suppl Table 1, motif in Pandemrix; 40 μM competitor vs 1 μM Bio-EBV, 25 nM DQ0602, pH 4.6, 3 days 37 °C, duplicate; <25% strong, 25–50% weak binder
# Method: The reaction was quenched by adding two volumes of neutralization buffer (100 mM Tris-HCl, pH = 8.6, 150 mM NaCl, 1% BSA, 0.5 Nonidet P-40 (IGEPAL CA-630, Sigma), 0.1% NaN3). Monoclonal anti-DQ (SPV-L3) antibodies (Cat# BNUM0200-50, Biotium, Fremont, CA, USA) (1:400 dilution in 100 mM carbonate-bicarbonate buffer, pH = 9.5) were coated onto a high binding 96-well plate (REF# 9018, Corning), and incubated with neutralized reaction for 1–2 h at room temperature (RT). After washing five times with 300 μL/well of wash buffer (phosphate-buffered saline (PBS), 0.05% Tween-20, pH = 7.4), 100 μL/well of Europium (Eu)-labelled streptavidin (Cat# 1244–360, PerkinElmer, Waltham, MA, USA) (1:1000 dilution in PBS, 1% BSA, pH = 7.4) was added and incubated for 1 h at RT. After washing 5 times again with 300 μL/well of wash buffer, DELFIA® time-resolved fluorescence (TRF) intensity was detected using a Tecan Infinite® M1000 after adding 100 μL/well of enhancement solution (Cat# 1244–105, PerkinElmer). Non-specific binding was removed through extensive wash with wash buffer.
# A combination of in-vitro and in-silico methods was adopted to address this question. We synthesized 15 mer peptide stretches overlapping by 4mers using the most abundant viral proteins (HA, NA, NP, M1 & PB2) from reference strains (X179A and wild type pH1N1) as a template. […] In this way, a database of experimentally derived peptide binders from the abundant viral proteins was built. Next, we compared the mutated motifs (Table 3) from the vaccines to the reference motifs already tested for DQ0602 binding.
row,Substance,%DQ6-EBV Binding (PANDEMRIX motif) [%]
1,NTSLPFQNIH[P > Q]ITIGKCPKY,42.35
2,RTTIMAAFNG[N > D]TEGRTSDMR,12.48
3,NALNGNGDPN[N > D]MDKAVKLYR,27.47
4,NNAKEIGNGC[F > Y]EFYHKCDNT,84.06
5,DPNNMDKAVK[L > M]YRKLKREIT,71.82
6,VGKEFNHLEK[R > I]IENLNKKVD,42.31
7,QRRRFVQNAL[N > D]GNGDPNNMD,77.89
8,LQRRRFVQNA[L > P]NGNGDPNNM,88.31
9,LEVLMEWLKT[R > I]PILSPLTKG,51.58
10,QGRGVFELSD[E]KAASPIVPS,14.93
11,QVYSLIRPNE[N > D]PAHKSQLVW,35.94
12,MASQGTKRSY[E > Q]QMETDGERQ,78.07
13,QNALNGNGDP[N > D]NMDKAVKLY,6.87

# Same assay, conditions: Suppl Table 1, reference motif of X179A; 40 μM competitor vs 1 μM Bio-EBV, 25 nM DQ0602, pH 4.6, 3 days 37 °C, duplicate; <25% strong, 25–50% weak binder
row,Substance,%DQ6-EBV Binding (X179A motif) [%]
1,NTSLPFQNIH[P]ITIGKCPKY,56.53
2,LEVLMEWLKT[R]PILSPLTKG,116.06
3,DPNNMDKAVK[L]YRKLKREIT,73.65
4,NNAKEIGNGC[F]EFYHKCDNT,79.28
5,QVYSLIRPNE[N]PAHKSQLVW,48.19
6,QGRGVFELSD[E]KAASPIVPS,14.93
7,MASQGTKRSY[E]QMETDGERQ,67.56
8,NALNGNGDPN[N]MDKAVKLYR,32.79
9,QNALNGNGDP[N]NMDKAVKLY,6.01
10,VGKEFNHLEK[R]IENLNKKVD,80.71
11,QRRRFVQNAL[N]GNGDPNNMD,66.28
12,LQRRRFVQNA[L]NGNGDPNNM,83.1

# Same assay, conditions: Suppl Table 1, wild type pH1N1 motif; 40 μM competitor vs 1 μM Bio-EBV, 25 nM DQ0602, pH 4.6, 3 days 37 °C, duplicate; <25% strong, 25–50% weak binder
row,Substance,%DQ6-EBV Binding (PH1N1 motif) [%]
1,NTSLPFQNIH[P]ITIGKCPKY,56.53
2,NALNGNGDPN[N]MDRAVKLYK,21.69
3,QGRGVFELSD[E]KATNPIVPS,39.96
4,NNAKEIGNGC[F]EFYHKCDNT,79.28
5,QVVSLMRPNE[N]PAHKSQLVW,31.89
6,LEALMEWLKT[R]PILSPLTKG,31.61
7,MASQGTKRSY[E]QMETGGERQ,71.8
8,VGKEFNHLEK[R]IENLNKKVD,80.71
9,QRRRFVQNAL[N]GNGDPNNMD,66.28
10,LQRRRFVQNA[L]NGNGDPNNM,83.1
11,DPNNMDRAVK[L]YKKLKREIT,67.01
